Key:
[1] = system: NCI-H1581; test: cells; assay type: functional, cell-based; details: Homo sapiens, NCI-H1581, 96 h
[2] = system: NCI-H460; test: cells; assay type: functional, cell-based; details: Homo sapiens, NCI-H460, 96 h
[3] = system: SK-HEP1; test: cells; assay type: functional, cell-based; details: Homo sapiens, SK-HEP1, 96 h
[4] = system: SNU-16; test: cells; assay type: functional, cell-based; details: Homo sapiens, SNU-16, 96 h
[5] = system: Huh-7; test: cells; assay type: functional, cell-based; details: Homo sapiens, Huh-7, 96 h
[6] = system: NCI-H1581; test: animal or person; assay type: functional; details: Mus musculus, NCI-H1581, po, 624 h, time 26 day, read-out: TGI
Description: Antitumor activity against human NCI-H1581 cells xenografted in BALB/c mouse assessed as tumor growth inhibition at 100 mg/kg, po administered once daily for 26 days relative to control

[7] = molecular target: Tyrosine-protein kinase ABL1 (Homo sapiens) (UniProt P00519); details: dose 1000.0 nM
Description: Inhibition of ABL1 (unknown origin) at 1000 nM relative to control

[8] = molecular target: Mitogen-activated protein kinase kinase kinase 14 (Homo sapiens) (UniProt Q99558); details: dose 1000.0 nM
Description: Inhibition of NIK (unknown origin) at 1000 nM relative to control

[9] = molecular target: Serine/threonine-protein kinase B-raf (Homo sapiens) (UniProt P15056); details: dose 1000.0 nM
Description: Inhibition of BRAF (unknown origin) at 1000 nM relative to control

[10] = molecular target: Tyrosine-protein kinase Mer (Homo sapiens) (UniProt Q12866); details: dose 1000.0 nM
Description: Inhibition of c-MER (unknown origin) at 1000 nM relative to control

[11] = molecular target: Calcium/calmodulin-dependent protein kinase type II subunit alpha (Homo sapiens) (UniProt Q9UQM7); details: dose 1000.0 nM
Sequence of Calcium/calmodulin-dependent protein kinase type II subunit alpha (Homo sapiens) (Q9UQM7 whole entry): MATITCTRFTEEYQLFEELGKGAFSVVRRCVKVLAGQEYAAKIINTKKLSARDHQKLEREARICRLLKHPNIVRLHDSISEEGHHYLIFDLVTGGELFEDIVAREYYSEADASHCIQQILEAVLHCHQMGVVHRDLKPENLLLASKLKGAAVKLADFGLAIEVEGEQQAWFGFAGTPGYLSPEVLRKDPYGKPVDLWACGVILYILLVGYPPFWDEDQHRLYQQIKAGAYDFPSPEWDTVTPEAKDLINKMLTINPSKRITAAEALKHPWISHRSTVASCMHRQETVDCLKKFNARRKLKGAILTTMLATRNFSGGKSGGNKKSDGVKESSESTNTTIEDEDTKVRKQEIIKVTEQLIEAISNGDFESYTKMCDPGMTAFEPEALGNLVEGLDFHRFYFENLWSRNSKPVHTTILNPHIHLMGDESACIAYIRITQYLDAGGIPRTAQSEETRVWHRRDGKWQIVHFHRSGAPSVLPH
Description: Inhibition of CAMK2 alpha (unknown origin) at 1000 nM relative to control

[12] = molecular target: Vascular endothelial growth factor receptor 2 (Homo sapiens) (UniProt P35968); details: dose 1000.0 nM
Description: Inhibition of VEGFR2(unknown origin) at 1000 nM relative to control

[13] = molecular target: Mitogen-activated protein kinase 8 (Homo sapiens) (UniProt P45983); details: dose 1000.0 nM
Sequence of Mitogen-activated protein kinase 8 (Homo sapiens) (P45983 whole entry): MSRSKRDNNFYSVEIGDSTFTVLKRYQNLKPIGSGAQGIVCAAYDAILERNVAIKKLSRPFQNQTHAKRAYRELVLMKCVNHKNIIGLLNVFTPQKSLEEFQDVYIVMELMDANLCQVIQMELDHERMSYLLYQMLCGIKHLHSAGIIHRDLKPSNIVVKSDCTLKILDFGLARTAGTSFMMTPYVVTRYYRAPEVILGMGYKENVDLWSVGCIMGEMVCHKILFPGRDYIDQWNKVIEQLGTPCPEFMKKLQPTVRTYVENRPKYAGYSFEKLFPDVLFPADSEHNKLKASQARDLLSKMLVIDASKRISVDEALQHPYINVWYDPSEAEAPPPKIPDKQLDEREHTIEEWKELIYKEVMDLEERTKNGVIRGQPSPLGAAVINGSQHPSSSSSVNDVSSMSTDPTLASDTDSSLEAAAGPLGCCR
Description: Inhibition of JNK1 (unknown origin) at 1000 nM relative to control

[14] = in vivo; details: Sprague-Dawley, rat, po, 5 mg/kg
[15] = molecular target: Focal adhesion kinase 1 (Homo sapiens) (UniProt Q05397); details: dose 1000.0 nM
Sequence of Focal adhesion kinase 1 (Homo sapiens) (Q05397 2-1052 limits assumed): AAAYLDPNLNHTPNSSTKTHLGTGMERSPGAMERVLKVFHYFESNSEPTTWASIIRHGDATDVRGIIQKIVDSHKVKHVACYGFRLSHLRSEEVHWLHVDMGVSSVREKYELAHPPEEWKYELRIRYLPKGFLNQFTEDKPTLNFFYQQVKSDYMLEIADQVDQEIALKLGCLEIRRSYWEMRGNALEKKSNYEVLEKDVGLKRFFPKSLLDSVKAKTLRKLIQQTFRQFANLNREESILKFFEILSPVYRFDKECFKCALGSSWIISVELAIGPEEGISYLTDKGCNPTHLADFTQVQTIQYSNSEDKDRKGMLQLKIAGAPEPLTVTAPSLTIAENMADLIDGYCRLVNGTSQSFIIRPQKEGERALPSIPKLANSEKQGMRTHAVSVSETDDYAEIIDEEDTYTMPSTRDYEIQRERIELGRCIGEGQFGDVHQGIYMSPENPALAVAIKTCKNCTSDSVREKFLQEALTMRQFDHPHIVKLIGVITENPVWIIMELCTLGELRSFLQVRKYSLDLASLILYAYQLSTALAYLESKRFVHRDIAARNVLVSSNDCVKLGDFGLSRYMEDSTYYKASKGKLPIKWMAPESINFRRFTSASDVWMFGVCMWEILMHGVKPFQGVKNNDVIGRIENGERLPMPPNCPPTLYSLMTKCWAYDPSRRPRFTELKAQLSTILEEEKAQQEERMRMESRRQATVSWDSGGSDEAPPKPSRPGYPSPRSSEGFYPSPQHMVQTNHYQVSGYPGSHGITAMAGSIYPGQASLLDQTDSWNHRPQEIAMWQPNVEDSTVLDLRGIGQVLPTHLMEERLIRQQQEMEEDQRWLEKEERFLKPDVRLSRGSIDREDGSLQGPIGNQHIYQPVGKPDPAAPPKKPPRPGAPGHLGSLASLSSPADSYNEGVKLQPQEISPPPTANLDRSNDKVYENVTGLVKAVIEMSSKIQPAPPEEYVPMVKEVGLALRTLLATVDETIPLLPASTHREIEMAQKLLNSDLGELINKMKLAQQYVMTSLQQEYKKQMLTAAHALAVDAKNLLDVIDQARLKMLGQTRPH
Description: Inhibition of FAK (unknown origin) at 1000 nM relative to control

[16] = species: Homo sapiens; details: dose 1000.0 nM
Description: Inhibition of PKA (unknown origin) at 1000 nM relative to control

[17] = molecular target: Serine/threonine-protein kinase PAK 3 (Homo sapiens) (UniProt O75914); details: dose 1000.0 nM
Description: Inhibition of PAK3 (unknown origin) at 1000 nM relative to control

[18] = molecular target: Serine/threonine-protein kinase TBK1 (Homo sapiens) (UniProt Q9UHD2); details: dose 1000.0 nM
Sequence of Serine/threonine-protein kinase TBK1 (Homo sapiens) (Q9UHD2 whole entry): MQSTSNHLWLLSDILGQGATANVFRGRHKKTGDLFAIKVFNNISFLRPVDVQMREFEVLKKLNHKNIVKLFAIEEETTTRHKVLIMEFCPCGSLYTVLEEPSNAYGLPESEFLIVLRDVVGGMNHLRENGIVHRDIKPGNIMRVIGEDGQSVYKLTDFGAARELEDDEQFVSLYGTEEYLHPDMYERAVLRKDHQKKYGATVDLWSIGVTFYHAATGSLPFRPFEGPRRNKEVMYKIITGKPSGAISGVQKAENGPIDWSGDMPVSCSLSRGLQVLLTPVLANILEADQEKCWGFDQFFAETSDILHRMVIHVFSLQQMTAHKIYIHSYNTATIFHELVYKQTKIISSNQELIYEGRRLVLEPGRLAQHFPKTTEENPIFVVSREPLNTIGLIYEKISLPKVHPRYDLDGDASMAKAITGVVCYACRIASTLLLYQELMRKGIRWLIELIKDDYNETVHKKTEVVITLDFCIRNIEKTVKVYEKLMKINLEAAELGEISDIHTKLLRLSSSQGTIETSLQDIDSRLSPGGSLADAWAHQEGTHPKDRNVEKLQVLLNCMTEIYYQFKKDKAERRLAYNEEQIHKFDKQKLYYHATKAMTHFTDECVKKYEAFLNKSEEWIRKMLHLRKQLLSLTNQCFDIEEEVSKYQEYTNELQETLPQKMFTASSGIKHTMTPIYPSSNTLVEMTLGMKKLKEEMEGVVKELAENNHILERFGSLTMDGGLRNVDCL
Description: Inhibition of TBK1 (unknown origin) at 1000 nM relative to control

[19] = molecular target: Proto-oncogene tyrosine-protein kinase receptor Ret (Homo sapiens) (UniProt P07949); details: dose 1000.0 nM
Description: Inhibition of RET (unknown origin) at 1000 nM relative to control

[20] = molecular target: Tyrosine-protein kinase JAK3 (Homo sapiens) (UniProt P52333); details: dose 1000.0 nM
Description: Inhibition of JAK3 (unknown origin) at 1000 nM relative to control

[21] = molecular target: Glycogen synthase kinase-3 beta (Homo sapiens) (UniProt P49841); details: dose 1000.0 nM
Description: Inhibition of GSK3beta (unknown origin) at 1000 nM relative to control

[22] = molecular target: Aurora kinase A (Homo sapiens) (UniProt O14965); details: dose 1000.0 nM
Sequence of Aurora kinase A (Homo sapiens) (O14965 whole entry): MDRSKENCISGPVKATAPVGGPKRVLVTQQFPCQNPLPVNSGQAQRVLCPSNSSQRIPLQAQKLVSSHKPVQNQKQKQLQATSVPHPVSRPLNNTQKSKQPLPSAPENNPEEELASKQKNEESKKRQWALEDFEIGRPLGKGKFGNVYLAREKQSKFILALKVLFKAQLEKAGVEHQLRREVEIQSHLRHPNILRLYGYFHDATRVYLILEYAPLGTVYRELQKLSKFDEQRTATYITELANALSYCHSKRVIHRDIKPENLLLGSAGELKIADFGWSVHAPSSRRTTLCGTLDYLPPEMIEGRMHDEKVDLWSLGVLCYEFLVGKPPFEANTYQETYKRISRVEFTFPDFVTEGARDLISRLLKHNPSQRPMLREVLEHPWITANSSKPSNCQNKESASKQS
Description: Inhibition of AURORA kinase A (unknown origin) at 1000 nM relative to control

[23] = in vivo; details: Sprague-Dawley, rat, po, 5 mg/kg; remark: listed apart in the source
[24] = molecular target: Mitogen-activated protein kinase 1 (Homo sapiens) (UniProt P28482); details: dose 1000.0 nM
Description: Inhibition of MAPK1 (unknown origin) at 1000 nM relative to control

[25] = molecular target: Discoidin domain-containing receptor 2 (Homo sapiens) (UniProt Q16832); details: dose 1000.0 nM
Description: Inhibition of DDR2 (unknown origin) at 1000 nM relative to control

[26] = molecular target: Tyrosine-protein kinase receptor UFO (Homo sapiens) (UniProt P30530); details: dose 1000.0 nM
Description: Inhibition of AXL (unknown origin) at 1000 nM relative to control

[27] = molecular target: Serine/threonine-protein kinase Nek3 (Homo sapiens) (UniProt P51956); details: dose 1000.0 nM
Description: Inhibition of NEK3 (unknown origin) at 1000 nM relative to control

[28] = molecular target: Interleukin-1 receptor-associated kinase 4 (Homo sapiens) (UniProt Q9NWZ3); details: dose 1000.0 nM
Sequence of Interleukin-1 receptor-associated kinase 4 (Homo sapiens) (Q9NWZ3 whole entry): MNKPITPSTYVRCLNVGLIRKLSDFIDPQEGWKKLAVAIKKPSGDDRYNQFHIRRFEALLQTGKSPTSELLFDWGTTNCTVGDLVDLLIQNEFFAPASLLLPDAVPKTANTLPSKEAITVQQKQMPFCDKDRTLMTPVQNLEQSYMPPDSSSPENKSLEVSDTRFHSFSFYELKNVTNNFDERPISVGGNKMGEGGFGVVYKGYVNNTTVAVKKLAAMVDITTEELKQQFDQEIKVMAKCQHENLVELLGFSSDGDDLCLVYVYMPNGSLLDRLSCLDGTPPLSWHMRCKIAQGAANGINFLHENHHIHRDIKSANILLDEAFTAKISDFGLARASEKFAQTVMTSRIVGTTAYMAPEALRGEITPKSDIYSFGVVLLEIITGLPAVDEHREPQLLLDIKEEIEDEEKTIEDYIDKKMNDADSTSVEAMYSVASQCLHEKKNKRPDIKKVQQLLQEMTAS
Description: Inhibition of IRAK4 (unknown origin) at 1000 nM relative to control

[29] = molecular target: Tyrosine-protein kinase BTK (Homo sapiens) (UniProt Q06187); details: dose 1000.0 nM
Description: Inhibition of BTK (unknown origin) at 1000 nM relative to control

[30] = in vivo; details: Sprague-Dawley, rat, iv, 5 mg/kg
[31] = molecular target: Receptor tyrosine-protein kinase erbB-2 (Homo sapiens) (UniProt P04626); details: dose 1000.0 nM
Description: Inhibition of HER2 (unknown origin) at 1000 nM relative to control

[32] = molecular target: Epidermal growth factor receptor (Homo sapiens) (UniProt P00533); details: dose 1000.0 nM
Description: Inhibition of EGFR (unknown origin) at 1000 nM relative to control

[33] = in vivo; details: Sprague-Dawley, rat, iv, 5 mg/kg; remark: listed apart in the source
[34] = molecular target: Glycogen synthase kinase-3 alpha (Homo sapiens) (UniProt P49840); details: dose 1000.0 nM
Description: Inhibition of GSK3alpha (unknown origin) at 1000 nM relative to control

[35] = molecular target: RAC-gamma serine/threonine-protein kinase (Homo sapiens) (UniProt Q9Y243); details: dose 1000.0 nM
Description: Inhibition of AKT3 (unknown origin) at 1000 nM relative to control

[36] = molecular target: Tyrosine-protein kinase CSK (Homo sapiens) (UniProt P41240); details: dose 1000.0 nM
Description: Inhibition of CSK (unknown origin) at 1000 nM relative to control

[37] = in vivo; details: Sprague-Dawley, rat, po, 5 mg/kg; remark: listed apart in the source
Description: MRT in Sprague-Dawley rat at 5 mg/kg, po administered as single dose measured up to 8 hrs by LC/MS-MS analysis

[38] = molecular target: Interferon-induced, double-stranded RNA-activated protein kinase (Homo sapiens) (UniProt P19525); details: dose 1000.0 nM
Description: Inhibition of EIF2AK2 (unknown origin) at 1000 nM relative to control

[39] = molecular target: Casein kinase II subunit alpha (Homo sapiens) (UniProt P68400); details: dose 1000.0 nM
Description: Inhibition of CK2alpha1 (unknown origin) at 1000 nM relative to control

[40] = molecular target: Mitogen-activated protein kinase 14 (Homo sapiens) (UniProt Q16539); details: dose 1000.0 nM
Description: Inhibition of P38alpha (unknown origin) at 1000 nM relative to control

[41] = molecular target: Tyrosine-protein kinase ITK/TSK (Homo sapiens) (UniProt Q08881); details: dose 1000.0 nM
Description: Inhibition of ITK (unknown origin) at 1000 nM relative to control

[42] = system: SNU-16; test: animal or person; assay type: functional; details: Mus musculus, SNU-16, po, 960 h, time 40 day, read-out: TGI
Description: Antitumor activity against human SNU-16 cells xenografted in BALB/c mouse assessed as tumor growth inhibition at 50 mg/kg, po administered once daily for 40 days relative to control

[43] = molecular target: Platelet-derived growth factor receptor alpha (Homo sapiens) (UniProt P16234); details: dose 1000.0 nM
Description: Inhibition of PDGFRA (unknown origin) at 1000 nM relative to control

[44] = molecular target: ALK tyrosine kinase receptor (Homo sapiens) (UniProt Q9UM73); details: dose 1000.0 nM
Description: Inhibition of ALK (unknown origin) at 1000 nM relative to control

[45] = molecular target: Cyclin-dependent kinase 4 (Homo sapiens) (UniProt P11802); details: dose 1000.0 nM
Description: Inhibition of CDK4 (unknown origin) at 1000 nM relative to control

[46] = molecular target: Voltage-gated inwardly rectifying potassium channel KCNH2 (Homo sapiens, UniProt Q12809)
Description: Binding affinity to human ERG

[47] = molecular target: Maternal embryonic leucine zipper kinase (Homo sapiens) (UniProt Q14680); details: dose 1000.0 nM
Description: Inhibition of MELK (unknown origin) at 1000 nM relative to control

[48] = molecular target: Rho-associated protein kinase 1 (Homo sapiens) (UniProt Q13464); details: dose 1000.0 nM
Description: Inhibition of ROCK1 (unknown origin) at 1000 nM relative to control

[49] = molecular target: Serine/threonine-protein kinase TAO1 (Homo sapiens) (UniProt Q7L7X3); details: dose 1000.0 nM
Sequence of Serine/threonine-protein kinase TAO1 (Homo sapiens) (Q7L7X3 whole entry): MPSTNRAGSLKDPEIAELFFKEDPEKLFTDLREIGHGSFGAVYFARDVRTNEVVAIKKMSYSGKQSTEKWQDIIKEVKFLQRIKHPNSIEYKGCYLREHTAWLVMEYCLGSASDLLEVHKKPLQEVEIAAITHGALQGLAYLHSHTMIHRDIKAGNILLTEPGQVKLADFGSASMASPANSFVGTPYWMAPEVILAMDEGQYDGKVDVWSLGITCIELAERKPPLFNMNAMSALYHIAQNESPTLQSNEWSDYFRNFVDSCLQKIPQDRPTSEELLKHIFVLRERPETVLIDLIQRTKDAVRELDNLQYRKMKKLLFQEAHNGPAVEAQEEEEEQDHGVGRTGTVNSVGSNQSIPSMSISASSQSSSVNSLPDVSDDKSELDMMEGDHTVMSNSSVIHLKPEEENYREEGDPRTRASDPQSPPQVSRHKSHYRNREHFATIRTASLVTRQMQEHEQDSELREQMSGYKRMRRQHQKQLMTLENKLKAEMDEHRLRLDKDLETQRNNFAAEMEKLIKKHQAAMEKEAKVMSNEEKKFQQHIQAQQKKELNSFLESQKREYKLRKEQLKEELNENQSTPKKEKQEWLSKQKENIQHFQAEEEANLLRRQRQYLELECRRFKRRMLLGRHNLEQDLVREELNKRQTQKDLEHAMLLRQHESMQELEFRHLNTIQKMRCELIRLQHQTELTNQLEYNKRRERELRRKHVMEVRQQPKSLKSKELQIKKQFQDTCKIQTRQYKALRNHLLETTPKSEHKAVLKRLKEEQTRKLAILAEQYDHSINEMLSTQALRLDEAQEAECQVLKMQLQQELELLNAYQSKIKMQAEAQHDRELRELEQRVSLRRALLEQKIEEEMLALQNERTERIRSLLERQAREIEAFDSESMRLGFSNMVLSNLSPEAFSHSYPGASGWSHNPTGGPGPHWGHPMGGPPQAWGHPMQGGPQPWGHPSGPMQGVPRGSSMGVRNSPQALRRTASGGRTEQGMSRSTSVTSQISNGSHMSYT
Description: Inhibition of TAOK1 (unknown origin) at 1000 nM relative to control

[50] = molecular target: TGF-beta receptor type-1 (Homo sapiens) (UniProt P36897); details: dose 1000.0 nM
Description: Inhibition of TGFBR1 (unknown origin) at 1000 nM relative to control

[51] = system: NCI-H1581; test: animal or person; assay type: functional; details: Mus musculus, NCI-H1581, po, 624 h, time 26 day, read-out: TGI; remark: listed apart in the source
Description: Antitumor activity against human NCI-H1581 cells xenografted in BALB/c mouse assessed as tumor growth inhibition at 50 mg/kg, po administered once daily for 26 days relative to control

[52] = molecular target: Proto-oncogene tyrosine-protein kinase Src (Homo sapiens) (UniProt P12931); details: dose 1000.0 nM
Description: Inhibition of SRC (unknown origin) at 1000 nM relative to control

[53] = in vivo; details: Sprague-Dawley, rat, iv, 5 mg/kg; remark: listed apart in the source
Description: MRT in Sprague-Dawley rat at 5 mg/kg, iv administered as single dose measured up to 8 hrs by LC/MS-MS analysis

[54] = molecular target: Serine/threonine-protein kinase Chk1 (Homo sapiens) (UniProt O14757); details: dose 1000.0 nM
Description: Inhibition of CHK1 (unknown origin) at 1000 nM relative to control

[55] = molecular target: Mitogen-activated protein kinase kinase kinase 5 (Homo sapiens) (UniProt Q99683); details: dose 1000.0 nM
Description: Inhibition of ASK1 (unknown origin) at 1000 nM relative to control

[56] = molecular target: Serine/threonine-protein kinase pim-1 (Homo sapiens) (UniProt P11309); details: dose 1000.0 nM
Sequence of Serine/threonine-protein kinase pim-1 (Homo sapiens) (P11309 whole entry, looked up): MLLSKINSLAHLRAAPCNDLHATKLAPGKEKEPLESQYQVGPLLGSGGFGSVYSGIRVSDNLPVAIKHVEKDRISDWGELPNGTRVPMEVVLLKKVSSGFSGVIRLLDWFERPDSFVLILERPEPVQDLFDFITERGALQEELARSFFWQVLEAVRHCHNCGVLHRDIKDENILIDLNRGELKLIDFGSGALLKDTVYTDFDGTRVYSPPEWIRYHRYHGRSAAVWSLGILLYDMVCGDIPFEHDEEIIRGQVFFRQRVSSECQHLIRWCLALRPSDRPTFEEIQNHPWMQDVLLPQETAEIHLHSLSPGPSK
Description: Inhibition of PIM1 (unknown origin) at 1000 nM relative to control

[57] = molecular target: Tyrosine-protein kinase Lck (Homo sapiens) (UniProt P06239); details: dose 1000.0 nM
Description: Inhibition of LCK (unknown origin) at 1000 nM relative to control

[58] = in vivo; details: Sprague-Dawley, rat, iv, 5 mg/kg; remark: listed apart in the source
Description: Initial plasma concentration in Sprague-Dawley rat at 5 mg/kg, iv administered as single dose measured up to 8 hrs by LC/MS-MS analysis

[59] = molecular target: Macrophage-stimulating protein receptor (Homo sapiens) (UniProt Q04912); details: dose 1000.0 nM
Description: Inhibition of RON (unknown origin) at 1000 nM relative to control

[60] = molecular target: Dual specificity protein kinase CLK1 (Homo sapiens) (UniProt P49759); details: dose 1000.0 nM
Description: Inhibition of CLK1 (unknown origin) at 1000 nM relative to control

[61] = in vivo; details: Sprague-Dawley, rat, po, 5 mg/kg; remark: listed apart in the source
Description: Half life in Sprague-Dawley rat plasma at 5 mg/kg, po administered as single dose measured up to 8 hrs by LC/MS-MS analysis

[62] = molecular target: Receptor-type tyrosine-protein kinase FLT3 (Homo sapiens) (UniProt P36888); details: dose 1000.0 nM
Description: Inhibition of FLT3 (unknown origin) at 1000 nM relative to control

[63] = species: Homo sapiens; details: dose 1000.0 nM; remark: listed apart in the source
Description: Inhibition of FYNA (unknown origin) at 1000 nM relative to control

[64] = molecular target: Serine/threonine-protein kinase Nek2 (Homo sapiens) (UniProt P51955); details: dose 1000.0 nM
Description: Inhibition of NEK2 (unknown origin) at 1000 nM relative to control

[65] = molecular target: Hepatocyte growth factor receptor (Homo sapiens) (UniProt P08581); details: dose 1000.0 nM
Description: Inhibition of MET (unknown origin) at 1000 nM relative to control

[66] = in vivo; details: Sprague-Dawley, rat, po, 5 mg/kg; remark: listed apart in the source
Description: Clearance in Sprague-Dawley rat at 5 mg/kg, po administered as single dose measured up to 8 hrs by LC/MS-MS analysis

[67] = system: SNU-16; test: animal or person; assay type: functional; details: Mus musculus, SNU-16, po, 960 h, time 40 day, read-out: TGI; remark: listed apart in the source
Description: Antitumor activity against human SNU-16 cells xenografted in BALB/c mouse assessed as tumor growth inhibition at 100 mg/kg, po administered once daily for 40 days relative to control

COc1cc(CCc2cc(NC(=O)c3ccc(N4C[C@@H](C)N[C@@H](C)C4)cc3)n[nH]2)cc(OC)c1 [FEXAGRATINIB]
IC50 [1]: 24 nM | IC50 [2]: > 10000 nM | IC50 [3]: 2780 nM | IC50 [4]: 6 nM | IC50 [5]: > 10000 nM

COc1cc(OC)cc(-c2nn(CCCCCN3CCN(C(=O)/C=C/C(F)(F)F)CC3)c3ncnc(N)c23)c1
inhibition in vivo at 100 mg/kg [6]: 88.6% | inhibition [7]: 14% | inhibition [8]: 0% | inhibition [9]: 2% | inhibition [10]: 9% | inhibition [11]: 0% | inhibition [12]: 7% | inhibition [13]: 2% | bioavailability at 8 h [14]: 24.9% | inhibition [15]: 17% | inhibition [16]: 0% | inhibition [17]: 9% | inhibition [18]: 1% | inhibition [19]: 24% | inhibition [20]: 11% | IC50 [1]: 16 nM | inhibition [21]: 0% | inhibition [22]: 1% | Tmax at 8 h [23]: 8.34 min | inhibition [24]: 4% | inhibition [25]: 21% | inhibition [26]: 0% | inhibition [27]: 1% | IC50 [2]: > 10000 nM | inhibition [28]: 0% | inhibition [29]: 0% | Tmax at 8 h [30]: 4.98 min | inhibition [31]: 3% | inhibition [32]: 2% | AUC at 8 h [33]: 0.309 ng·h/mL | inhibition [34]: 0% | inhibition [35]: 6% | inhibition [36]: 0% | MRT at 8 h [37]: 19.1 min | inhibition [38]: 27% | inhibition [39]: 0% | inhibition [40]: 3% | inhibition [41]: 35% | inhibition in vivo at 50 mg/kg [42]: 67.9% | inhibition [43]: 42% | inhibition [44]: 0% | inhibition [45]: 3% | IC50 [4]: 6 nM | IC50 [46]: 3210 nM | inhibition [47]: 0% | inhibition [48]: 12% | inhibition [49]: 0% | inhibition [50]: 8% | inhibition in vivo at 50 mg/kg [51]: 69.5% | inhibition [52]: 83% | MRT at 8 h [53]: 60.5 min | inhibition [54]: 2% | inhibition [55]: 0% | inhibition [56]: 0% | inhibition [57]: 23% | C0 at 8 h [58]: 0.519 ng/mL | inhibition [59]: 4% | inhibition [60]: 0% | half-life at 8 h [61]: 16.8 min | inhibition [62]: 1% | inhibition [63]: 0% | inhibition [64]: 0% | inhibition [65]: 1% | CL/F at 8 h [66]: 280000 mL/min | inhibition in vivo at 100 mg/kg [67]: 89.4%

From ChEMBL document CHEMBL5032504, “Discovery and Optimization of a Novel 2H-Pyrazolo[3,4-d]pyrimidine Derivative as a Potent Irreversible Pan-Fibroblast Growth Factor Receptor Inhibitor” (J Med Chem, 2021)
